Among the data in patent US9409905B2, “Antibacterial compounds and methods for use” (PTC THERAPEUTICS, INC., priority 2011, dated 2016) are MIC values, retold here.

The subject of assay [1] is Staphylococcus aureus (S. aureus) 29213. Description: Antibacterial activity, microbroth dilution MIC (Table 1). The class given is cell-based. The settings on record: microbroth dilution, Gram-positive S. aureus 29213, read-out: MIC, 29213. The method, boiled down:
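In a microbroth dilution test, the minimum inhibitory concentration was defined as the lowest compound level preventing growth seen by eye, and was given in μg/mL.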

Assay [2] deals with Escherichia coli (E. coli) BAS849. The assay is described as above. The assay is classed as cell-based. The conditions noted are these: microbroth dilution, super sensitive Gram-negative E. coli BAS849, read-out: MIC, BAS849. The gist of the method:
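Broth microdilution against S. aureus 29213, E. coli 25922 and hypersensitive E. coli BAS849. MIC in μg/mL is the lowest drug concentration preventing macroscopically visible growth under test conditions.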

Assay [3] concerns E. coli LZ3111. The assay can be described thus: Antibacterial activity, MIC, quinolone resistant strain (Table 2). The class given is cell-based. The settings on record: Escherichia coli, LZ3111, read-out: MIC LZ3111. The method, boiled down:
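Microbroth dilution method; MIC (μg/mL) is the lowest drug concentration preventing macroscopically visible growth under test conditions.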

Assay [4] concerns E. coli 25922. Description: Antibacterial activity, microbroth dilution MIC (Table 1). The class given is cell-based, Escherichia coli. The settings on record: Escherichia coli; microbroth dilution; control Gram-negative E. coli 25922 strain; read-out: MIC, 25922. The gist of the method: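 Growth inhibition by microbroth dilution. MIC = lowest μg/mL with no visible growth. Strain 25922 is the control Gram-negative; BAS849 is hypersensitive.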
Background: Broth dilution looks for growth in wells or tubes with falling amounts of substance.

As usually defined, the MIC is the lowest concentration that inhibits growth of the organism.

In brackets after ≈: the same amount, converted by molar mass.

Consider `CCc1c(-c2ccc3c(c2)cc(CNC(C)(C)c2ccccc2)n3C)[nH]c(=O)c(C(=O)O)c1O.Cl` [Cpd 217, 5-ethyl-4-hydroxy-6-(1-methyl-2-((2-phenylpropan-2-ylamino)methyl)-1H-indol-5-yl)-2-oxo-1,2-dihydropyridine-3-carboxylic acid hydrochloride], for which the MIC in assay [1] is 1 to 3.5 µg/mL; in assay [2], less than 1 µg/mL; in assay [3] it was 12.5 to 150 µg/mL; in assay [4], 1 to 3.5 µg/mL.
As for `CCc1c(-c2ccc3c(c2)cc(CN(C)Cc2ccccc2)n3C)[nH]c(=O)c(C(=O)O)c1O.Cl` [Cpd 218, 6-(2-((benzyl(methyl)amino)methyl)-1-methyl-1H-indol-5-yl)-5-ethyl-4-hydroxy-2-oxo-1,2-dihydropyridine-3-carboxylic acid hydrochloride], the minimal inhibitory concentration (MIC) in assay [1] is 3.5 to 12.5 µg/mL; in assay [2] it was less than 1 µg/mL; in assay [3], 12.5 to 150 µg/mL; in assay [4] it was 12.5 to 150 µg/mL.
Consider `CCc1c(-c2ccc3c(c2)cc(CNCC2CCCCC2)n3C)[nH]c(=O)c(C(=O)O)c1O.Cl` [Cpd 222, 6-(2-((cyclohexylmethylamino)methyl)-1-methyl-1H-indol-5-yl)-5-ethyl-4-hydroxy-2-oxo-1,2-dihydropyridine-3-carboxylic acid hydrochloride], for which the minimal inhibitory concentration (MIC) is 1 to 3.5 µg/mL in assay [1], less than 1 µg/mL in assay [2], 12.5 to 150 µg/mL in assay [3] and less than 1 µg/mL in assay [4].
In the case of `CCc1c(-c2ccc3c(c2)cc(CN(C)Cc2cccnc2)n3C)[nH]c(=O)c(C(=O)O)c1O.Cl` [Cpd 224, 5-ethyl-4-hydroxy-6-(1-methyl-2-((methyl(pyridin-3-ylmethyl)amino)methyl)-1H-indol-5-yl)-2-oxo-1,2-dihydropyridine-3-carboxylic acid hydrochloride], the minimal inhibitory concentration (MIC) was 3.5 to 12.5 µg/mL in assay [1], less than 1 µg/mL in assay [2], 12.5 to 150 µg/mL in assay [3] and 1 to 3.5 µg/mL in assay [4].
For `CCc1c(-c2ccc3c(c2)cc(CN(C)Cc2ccncc2)n3C)[nH]c(=O)c(C(=O)O)c1O.Cl` [Cpd 225, 5-ethyl-4-hydroxy-6-(1-methyl-2-((methyl(pyridin-4-ylmethyl)amino)methyl)-1H-indol-5-yl)-2-oxo-1,2-dihydropyridine-3-carboxylic acid hydrochloride] the same measures were 3.5 to 12.5 µg/mL, less than 1 µg/mL, 12.5 to 150 µg/mL and 3.5 to 12.5 µg/mL.
On the same counts, the results for `CCc1c(-c2ccc3c(c2)cc(CNC(C)c2ccncc2)n3C)[nH]c(=O)c(C(=O)O)c1O.Cl` (centres unmarked) [Cpd 226, 5-ethyl-4-hydroxy-6-(1-methyl-2-((1-(pyridin-4-yl)ethylamino)methyl)-1H-indol-5-yl)-2-oxo-1,2-dihydropyridine-3-carboxylic acid hydrochloride] are 1 to 3.5 µg/mL, less than 1 µg/mL, 12.5 to 150 µg/mL and 1 to 3.5 µg/mL.
Consider `CCc1c(-c2ccc3c(c2)cc(CNCC(C)(C)C)n3C)[nH]c(=O)c(C(=O)O)c1O.Cl` [Cpd 237, 5-ethyl-4-hydroxy-6-(1-methyl-2-((neopentylamino)methyl)-1H-indol-5-yl)-2-oxo-1,2-dihydropyridine-3-carboxylic acid hydrochloride], for which the MIC in assay [1] is 3.5 to 12.5 µg/mL; in assay [2], less than 1 µg/mL; in assay [3], 12.5 to 150 µg/mL; in assay [4], 1 to 3.5 µg/mL.
As to `CCc1c(-c2ccc3c(c2)cc(CNC(C)c2cccnc2)n3C)[nH]c(=O)c(C(=O)O)c1O.Cl` (centres unmarked) [Cpd 242, 5-ethyl-4-hydroxy-6-(1-methyl-2-((1-(pyridin-3-yl)ethylamino)methyl)-1H-indol-5-yl)-2-oxo-1,2-dihydropyridine-3-carboxylic acid hydrochloride], the minimal inhibitory concentration (MIC) is 1 to 3.5 µg/mL in assay [1], less than 1 µg/mL in assay [2], 12.5 to 150 µg/mL in assay [3] and 1 to 3.5 µg/mL in assay [4].
With `CCc1c(-c2ccc3c(c2)cc(CNC2CNC2)n3C)[nH]c(=O)c(C(=O)O)c1O.Cl.Cl` [Cpd 244, 6-(2-((azetidin-3-ylamino)methyl)-1-methyl-1H-indol-5-yl)-5-ethyl-4-hydroxy-2-oxo-1,2-dihydropyridine-3-carboxylic acid dihydrochloride], the minimal inhibitory concentration (MIC) in assay [1] is 12.5 to 150 µg/mL; in assay [2] it was 1 to 3.5 µg/mL; in assay [3], 12.5 to 150 µg/mL; in assay [4], 12.5 to 150 µg/mL.
Consider `CCc1c(-c2ccc3c(c2)cc(CNC2CN(C)C2)n3C)[nH]c(=O)c(C(=O)O)c1O.Cl.Cl` [Cpd 246, 5-ethyl-4-hydroxy-6-(1-methyl-2-((1-methylazetidin-3-ylamino)methyl)-1H-indol-5-yl)-2-oxo-1,2-dihydropyridine-3-carboxylic acid dihydrochloride], for which the MIC in assay [1] was 12.5 to 150 µg/mL; in assay [2] it was 1 to 3.5 µg/mL; in assay [3], 3.5 to 12.5 µg/mL; in assay [4], 12.5 to 150 µg/mL.
Consider `CCc1c(-c2ccc3c(c2)cc(CN2CCC(F)(F)CC2)n3C)[nH]c(=O)c(C(=O)O)c1O` [Cpd 249, 6-(2-((4,4-difluoropiperidin-1-yl)methyl)-1-methyl-1H-indol-5-yl)-5-ethyl-4-hydroxy-2-oxo-1,2-dihydropyridine-3-carboxylic acid], for which the minimum inhibitory concentration (MIC) is 1 to 3.5 µg/mL (≈ 2.24 to 7.86 µM) in assay [1], less than 1 µg/mL in assay [2], 12.5 to 150 µg/mL (≈ 28.1 to 337 µM) in assay [3] and 12.5 to 150 µg/mL (≈ 28.1 to 337 µM) in assay [4].
On to `CCc1c(-c2ccc3c(c2)cc(CN2CCCCC2C(F)(F)F)n3C)[nH]c(=O)c(C(=O)O)c1O` (centres unmarked) [Cpd 258, 5-ethyl-4-hydroxy-6-(1-methyl-2-((2-(trifluoromethyl)piperidin-1-yl)methyl)-1H-indol-5-yl)-2-oxo-1,2-dihydropyridine-3-carboxylic acid], for which the minimal inhibitory concentration (MIC) in assay [1] is 3.5 to 12.5 µg/mL (≈ 7.33 to 26.2 µM); in assay [2], less than 1 µg/mL; in assay [3], 12.5 to 150 µg/mL (≈ 26.2 to 314 µM); in assay [4], 12.5 to 150 µg/mL (≈ 26.2 to 314 µM).
Consider `CCc1c(-c2ccc3c(c2)cc(CN2CCCCC2CCOC)n3C)[nH]c(=O)c(C(=O)O)c1O` (centres unmarked) [Cpd 259, 5-ethyl-4-hydroxy-6-(2-((2-(2-methoxyethyl)piperidin-1-yl)methyl)-1-methyl-1H-indol-5-yl)-2-oxo-1,2-dihydropyridine-3-carboxylic acid], for which the MIC in assay [1] is 3.5 to 12.5 µg/mL (≈ 7.49 to 26.7 µM); in assay [2], less than 1 µg/mL; in assay [3] it was 12.5 to 150 µg/mL (≈ 26.7 to 321 µM); in assay [4], 3.5 to 12.5 µg/mL (≈ 7.49 to 26.7 µM).
With `CCc1c(-c2ccc3c(c2)cc(CN2CCCCC2CCCOC)n3C)[nH]c(=O)c(C(=O)O)c1O` (centres unmarked) [Cpd 260, 5-ethyl-4-hydroxy-6-(2-((2-(3-methoxypropyl)piperidin-1-yl)methyl)-1-methyl-1H-indol-5-yl)-2-oxo-1,2-dihydropyridine-3-carboxylic acid], the MIC in assay [1] was 3.5 to 12.5 µg/mL (≈ 7.27 to 26 µM); in assay [2], less than 1 µg/mL; in assay [3] it was 12.5 to 150 µg/mL (≈ 26 to 311 µM); in assay [4] it was 3.5 to 12.5 µg/mL (≈ 7.27 to 26 µM).
Consider `CCc1c(-c2ccc3c(c2)cc(CNC2CCNCC2)n3C)[nH]c(=O)c(C(=O)O)c1O` [Cpd 263, 5-ethyl-4-hydroxy-6-(1-methyl-2-((piperidin-4-ylamino)methyl)-1H-indol-5-yl)-2-oxo-1,2-dihydropyridine-3-carboxylic acid], for which the MIC in assay [1] lay within 12.5 to 150 µg/mL (≈ 29.4 to 353 µM); in assay [2], 3.5 to 12.5 µg/mL (≈ 8.24 to 29.4 µM); in assay [3], 12.5 to 150 µg/mL (≈ 29.4 to 353 µM); in assay [4], 12.5 to 150 µg/mL (≈ 29.4 to 353 µM).
Take `CCc1c(-c2ccc3c(c2)cc(CN(CC2CC2)C2CCCNC2)n3C)[nH]c(=O)c(C(=O)O)c1O` (centres unmarked) [Cpd 265, 6-(2-(((cyclopropylmethyl)(piperidin-3-yl)amino)methyl)-1-methyl-1H-indol-5-yl)-5-ethyl-4-hydroxy-2-oxo-1,2-dihydropyridine-3-carboxylic acid]: the minimal inhibitory concentration (MIC) in assay [1] lay within 1 to 3.5 µg/mL (≈ 2.09 to 7.31 µM); in assay [2], 1 to 3.5 µg/mL (≈ 2.09 to 7.31 µM); in assay [3], 12.5 to 150 µg/mL (≈ 26.1 to 313 µM); in assay [4] it was 12.5 to 150 µg/mL (≈ 26.1 to 313 µM).
Consider `CCc1c(-c2ccc3c(c2)cc(CN2CCC[C@H]2CNc2ccccc2)n3C)[nH]c(=O)c(C(=O)O)c1O` [Cpd 266, (S)-5-ethyl-4-hydroxy-6-(1-methyl-2-((2-((phenylamino)methyl)pyrrolidin-1-yl)methyl)-1H-indol-5-yl)-2-oxo-1,2-dihydropyridine-3-carboxylic acid], for which the MIC was less than 1 µg/mL in assay [1], less than 1 µg/mL in assay [2], 12.5 to 150 µg/mL (≈ 25 to 300 µM) in assay [3] and 12.5 to 150 µg/mL (≈ 25 to 300 µM) in assay [4].
With `CCc1c(-c2ccc3c(c2)cc(CN2CCC(c4ccccn4)C2)n3C)[nH]c(=O)c(C(=O)O)c1O` (centres unmarked) [Cpd 267, 5-ethyl-4-hydroxy-6-(1-methyl-2-((3-(pyridin-2-yl)pyrrolidin-1-yl)methyl)-1H-indol-5-yl)-2-oxo-1,2-dihydropyridine-3-carboxylic acid], the MIC was 3.5 to 12.5 µg/mL (≈ 7.41 to 26.5 µM) in assay [1], less than 1 µg/mL in assay [2], 12.5 to 150 µg/mL (≈ 26.5 to 317 µM) in assay [3] and 1 to 3.5 µg/mL (≈ 2.12 to 7.41 µM) in assay [4].
`CCc1c(-c2ccc3c(c2)cc(CN2CCC(c4ccncc4)C2)n3C)[nH]c(=O)c(C(=O)O)c1O` (centres unmarked) [Cpd 268, 5-ethyl-4-hydroxy-6-(1-methyl-2-((3-(pyridin-4-yl)pyrrolidin-1-yl)methyl)-1H-indol-5-yl)-2-oxo-1,2-dihydropyridine-3-carboxylic acid]: the MIC in assay [1] is 3.5 to 12.5 µg/mL (≈ 7.41 to 26.5 µM); in assay [2], less than 1 µg/mL; in assay [3], 12.5 to 150 µg/mL (≈ 26.5 to 317 µM); in assay [4], 3.5 to 12.5 µg/mL (≈ 7.41 to 26.5 µM).
As to `CCc1c(-c2ccc3c(c2)cc(CN2CC(C(=O)O)C2)n3C)[nH]c(=O)c(C(=O)O)c1O` [Cpd 269, 6-(2-((3-carboxyazetidin-1-yl)methyl)-1-methyl-1H-indol-5-yl)-5-ethyl-4-hydroxy-2-oxo-1,2-dihydropyridine-3-carboxylic acid], the MIC fell in the range of 12.5 to 150 µg/mL (≈ 29.4 to 353 µM) in assay [1], 3.5 to 12.5 µg/mL (≈ 8.23 to 29.4 µM) in assay [2], 12.5 to 150 µg/mL (≈ 29.4 to 353 µM) in assay [3] and 12.5 to 150 µg/mL (≈ 29.4 to 353 µM) in assay [4].
